Results as given in patent US20240383923A1, “HETEROARYL DERIVATIVE AND USE THEREOF” (VORONOI INC., priority 2022, published 2024).

Columns and labels:
[1] = test system: BT-474 cancer cells; experiment: Inhibition of BT-474 cell proliferation (CellTiter-Glo); assay type: cell-based; settings: Homo sapiens, BT-474 cells, 120 hours
In short: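 BT-474 cells in RPMI-1640 with 20% FBS, seeded 48 h before dosing with 11 three-fold dilutions (final 0.2 nM to 10 μM). Viability read by CellTiter-Glo luminescence 120 h after treatment, triplicate tests. GI50 derived from growth rate (%) versus control.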

[2] = test system: N-87 cancer cells; experiment: Inhibition of N-87 cell proliferation (CellTiter-Glo); assay type: cell-based; settings: N-87 cells, 72 hours
Method: N-87 cancer cells were cultured by using RPMI-1640 medium with 10% FBS. The N-87 cancer cells were seeded to a white clear bottom 96 well plate (Corning) at 5,000 cells per well 24 hours before the […] cancer cells were treated with Example Compounds. Example Compounds were diluted in dimethylsulfoxide (5-fold diluted, total 11 concentrations) and 0.5 μL each was injected so that the final concentration was […]. For the measurement of living cells, the cells were stored at room temperature for 10 minutes using the CellTiter-Glo cell viability reagent (Promega) after 72 hours after the treatment of Example Compounds, and then the luminescence intensity was measured using the reader (SynergyNeo, Biotek).
The result value was calculated as a cell growth rate (%) compared to a control group. Graphs were plotted and GI50 values were calculated using the GraphPad Prism version 8.0 program, and the results are shown in Table 18 below.

Row | SMILES | GI50 [1] [nM] | GI50 [2] [nM]
1 | COc1cc2ncnc(Nc3cc(C)c(Oc4ccn5ncnc5c4)cc3OC)c2cc1NC(=O)/C(F)=C\[C@H]1CCCN1C [Example 41, (R,E)-N-(4-((4-([1,2,4]triazolo[1,5-a]pyridin-7-yloxy)-2-methoxy-5-methylphenyl)amino)-7-methoxyquinazolin-6-yl)-2-fluoro-3-(1-methylpyrrolidin-2-yl)acrylamide] | ≤ 50 | ≤ 50
2 | C=CC(=O)N1CCC(Oc2cc(OC)cc3ncnc(Nc4cc(C)c(Oc5ccn6ncnc6c5)cc4OC)c23)C(F)(F)C1 (centres unmarked) [Example 15, 1-(4-((4-((4-([1,2,4]triazolo[1,5-a]pyridin-7-yloxy)-2-methoxy-5-methylphenyl)amino)-7-methoxyquinazolin-5-yl)oxy)-3,3-difluoropiperidin-1-yl)prop-2-en-1-one] | ≤ 50 | ≤ 50
3 | COc1cc2ncnc(Nc3cc(C)c(Oc4ccn5ccnc5c4)cc3OC)c2cc1NC(=O)/C(F)=C/[C@H]1CCCN1C [Example 76, (R,Z)-2-fluoro-N-(4-((4-(imidazo[1,2-a]pyridin-7-yloxy)-2-methoxy-5-methylphenyl)amino)-7-methoxyquinazolin-6-yl)-3-(1-methylpyrrolidin-2-yl)acrylamide] | ≤ 50 | ≤ 50
4 | CCOc1cc(Oc2ccn3ncnc3c2)c(C)cc1Nc1ncnc2cc(OC)c(NC(=O)/C(F)=C\[C@H]3CCCN3C)cc12 [Example 104, (R,E)-N-(4-((4-([1,2,4]triazolo[1,5-a]pyridin-7-yloxy)-2-ethoxy-5-methylphenyl)amino)-7-methoxyquinazolin-6-yl)-2-fluoro-3-(1-methylpyrrolidin-2-yl)acrylamide] | ≤ 50 | ≤ 50
5 | CCOc1cc2ncnc(Nc3cc(C)c(Oc4ccn5ncnc5c4)cc3OC)c2cc1NC(=O)/C(F)=C\[C@H]1CCCN1C [Example 93, (R,E)-N-(4-((4-([1,2,4]triazolo[1,5-a]pyridin-7-yloxy)-2-methoxy-5-methylphenyl)amino)-7-ethoxyquinazolin-6-yl)-2-fluoro-3-(1-methylpyrrolidin-2-yl)acrylamide] | ≤ 50 | ≤ 50
6 | C=CC(=O)N1CCC(Oc2cc3c(Nc4ccc(Oc5cccc(F)c5)cc4OC)ncnc3cc2OC)CC1 [Example 7, 1-(4-((4-((4-(3-fluorophenoxy)-2-methoxyphenyl)amino)-7-methoxyquinazolin-6-yl)oxy)piperidin-1-yl)prop-2-en-1-one] | ≤ 50 | ≤ 50
7 | C=CC(=O)N1CCC(Nc2cc3c(Nc4cc(Cl)c(Oc5ccccn5)cc4OC)ncnc3cc2OC)CC1 [Example 3, 1-(4-((4-((5-chloro-2-methoxy-4-(pyridin-2-yloxy)phenyl)amino)-7-methoxyquinazolin-6-yl)amino)piperidin-1-yl)prop-2-en-1-one] | ≤ 50 | ≤ 50
8 | COc1cc2ncnc(Nc3cc(Cl)c(Oc4ccn5ncnc5c4)cc3OC)c2cc1NC(=O)/C(F)=C\[C@H]1CCCN1C [Example 51, (R,E)-N-(4-((4-([1,2,4]triazolo[1,5-a]pyridin-7-yloxy)-5-chloro-2-methoxyphenyl)amino)-7-methoxyquinazolin-6-yl)-2-fluoro-3-(1-methylpyrrolidin-2-yl)acrylamide] | ≤ 50 | ≤ 50
9 | C=CC(=O)N1CCC(Oc2cc3c(Nc4cc(Cl)c(Oc5ccn6ncnc6c5)cc4OC)ncnc3cc2OC)CC1 [Example 5, 1-(4-((4-((4-([1,2,4]triazolo[1,5-a]pyridin-7-yloxy)-5-chloro-2-methoxyphenyl)amino)-7-methoxyquinazolin-6-yl)oxy)piperidin-1-yl)prop-2-en-1-one] | ≤ 50 | ≤ 50
10 | C=CC(=O)Nc1cc2c(Nc3cc(Cl)c(Oc4ccccn4)cc3OC)ncnc2cc1OC [Example 24, N-(4-((5-chloro-2-methoxy-4-(pyridin-2-yloxy)phenyl)amino)-7-methoxyquinazolin-6-yl)acrylamide] | ≤ 50 | ≤ 50
